Experiments:
[1] = system: Human AML MV-4-11 cells; assay: Inhibition of cell proliferation in MV4-11 cells (CellTiter Aqueous One); assay type: cell-based; settings: MV4-11, 72 h
Procedure, shortened: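 MV4-11 cells, 5×10^4 per well in IMDM with 10% FBS, were exposed to increasing compound concentrations or 0.1% DMSO for 72 h at 37 °C in triplicate. Viability was read by MTS (CellTiter Aqueous One) absorbance at 490 nm after 3-4 h. IC50 was derived from background-corrected signal relative to DMSO.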

[2] = system: MM1.s cells; assay: In vivo efficacy in multiple myeloma xenograft model using MM1.s cells; design: species or system mouse; settings: mice, oral 25 to 90 mg/kg
Method: MM1.s cells (ATCC) were grown under standard cell culture conditions and SCID-Beige strain of female mice age 6-7 weeks were injected with 10×10^6 cells/animal in 100 μL PBS+100 μL Matrigel in the lower left abdominal flank. By approximately day 21 after MM1.s cells injection, mice were randomized based on tumor volume (L×W×H)/2) of average 120 mm^3. Mice were dosed orally with compound at 25 to 90 mg/kg b.i.d and or q.d in EA006 formulation at 10 mL/kg body weight dose volume. Tumor measurements were taken with electronic micro calipers and body weights measured on alternate days beginning from dosing period. The average tumor volumes, percent Tumor Growth Inhibition (TGI) and % change in body weights were compared relative to Vehicle control animals. The means, statistical analysis and the comparison between groups were calculated using Student's t-test in Excel.

[3] = biological target: Brd4 bromodomain 1 (BRD4(1)) (Homo sapiens, UniProt O60885); assay: Inhibition of tetra-acetylated histone H4 binding to Brd4 bromodomain 1, measured by FRET (HTRF); design: made in house; host or cells: E. coli BL21(DE3); settings: 2 h at room temperature
Procedure, shortened: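 Inhibition was read as a drop in 665 nm relative to 620 nm HTRF signal after 2 h at room temperature, with IC50 from dose-response curves in duplicate wells. Reactions held 200 nM E. coli-expressed His-tagged bromodomain and 25-50 nM biotinylated tetra-acetylated histone H4 peptide. Buffer was 30 mM HEPES pH 7.4 with KF, CHAPS, BSA and 0.2% DMSO.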

[4] = system: c-myc in Human AML MV4-11 cells; assay: Inhibition of cMYC expression (mRNA, real-time PCR) in MV4-11 cells; assay type: cell-based; settings: 3 h treatment, cMYC mRNA by real-time PCR
Procedure, shortened: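 MV4-11 cells in IMDM with 10% FBS were treated with increasing compound concentrations (DMSO 0.1%) for 3 h at 37 °C, in triplicate. Isolated mRNA was quantified by one-step TaqMan RT-qPCR, cMYC Ct normalized to cyclophilin, and fold expression given relative to DMSO control.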

[5] = system: hIL-17 mRNA; assay: Inhibition of hIL-17 mRNA transcription in OKT3-stimulated peripheral blood mononuclear cells; assay type: cell-based; settings: human PBMC, OKT3 stimulation 6 h, read-out: IL-17 Activity
Procedure, shortened: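 Human PBMCs in IL-2 (20 ng/ml) medium preincubated 1 h with compound or 0.1% DMSO, then OKT3-stimulated for 6 h at 37 °C. hIL-17 mRNA quantified by one-step TaqMan qRT-PCR, normalized to an internal control, as fold induction relative to control.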

Row | IC50 [1] | IC50 [3] | IC50 [4] | IC50 [5] | SMILES | In vivo activity [2]
1 | 300 to 3000 nM | ≤ 300 nM | 300 to 3000 nM | 300 to 3000 nM | Cc1noc(C)c1-c1cc(-c2c(C)noc2C)c2nc[nH]c2c1 [Example Compound 1, 4,4′-(1H-benzo[d]imidazole-4,6-diyl)bis(3,5-dimethylisoxazole)] | Active
2 | 300 to 3000 nM | ≤ 300 nM | 300 to 3000 nM | ≤ 300 nM | Cc1nc2c(-c3c(C)noc3C)cc(-c3c(C)noc3C)cc2[nH]1 [Example Compound 6, 4,4′-(2-methyl-1H-benzo[d]imidazole-4,6-diyl)bis(3,5-dimethylisoxazole)] | Active
3 | 300 to 3000 nM | ≤ 300 nM | 300 to 3000 nM | 300 to 3000 nM | Cc1nc2c(-c3cccnc3C)cc(-c3c(C)noc3C)cc2[nH]1 [Example Compound 41, 3,5-dimethyl-4-(2-methyl-4-(2-methylpyridin-3-yl)-1H-benzo[d]imidazol-6-yl)isoxazole] | Active
4 | 300 to 3000 nM | ≤ 300 nM | ≤ 300 nM | ≤ 300 nM | Cc1nc2c(-c3c(C)nn(C)c3C)cc(-c3c(C)noc3C)cc2[nH]1 [Example Compound 49, 3,5-dimethyl-4-(2-methyl-4-(1,3,5-trimethyl-1H-pyrazol-4-yl)-1H-benzo[d]imidazol-6-yl)isoxazole] | 

— US9999616B2 (ZENITH EPIGENETICS LTD., priority 2013, dated 2018)
